According to article PMC10687071 (The Journal of Biological Chemistry, 2023):

Target: T1, PAS domain of EAG1 channels (Mus musculus, UniProt Q60603)
T1 construct: DNA encoding PAS (residues 7–136) of mouse EAG1 channels (GI # Q60603); 6-His (N); TEV protease cleavage site (N); made in house; host or cells: BL21 (DE3) Escherichia coli
T1 sequence (Q60603 7-136): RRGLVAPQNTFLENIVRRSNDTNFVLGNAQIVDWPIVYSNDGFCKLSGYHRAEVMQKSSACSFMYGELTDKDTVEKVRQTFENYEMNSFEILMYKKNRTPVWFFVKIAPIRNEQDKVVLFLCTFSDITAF
Assay: Surface plasmon resonance, PAS domain immobilized on CM5 chip
Assay type: binding
Conditions: imipramine 1, 10 and 30 μM; concentration-dependent increase in SPR response; affinity not determined
Protocol: DNA encoding PAS (residues 7–136) of mouse EAG1 channels (GI # Q60603) was synthesized by BioBasic and subcloned into pETM11 bacterial expression vector containing an N-terminal 6-His affinity tag followed by a tobacco etch virus (TEV) protease cleavage site. The DNA sequences were verified by sequencing (Genewiz). The PAS domains were expressed in BL21 (DE3) Escherichia coli cells as previously described ([25], [63]). The cells were grown at 37 °C to an optical density at 600 nm of 0.6 to 0.8, induced with IPTG at 18 °C overnight and harvested by centrifugation. The cells were resuspended in 150 mM KCl, 1 mM TCEP, 1 mM ABSF, 2.5 mg/ml DNaseI and 30 mM HEPES, pH 7.5. Cells were lysed with an Emulsiflex-C5 (Avestin). Insoluble protein was separated by centrifugation in 45 Ti rotor at 30,000 rpm for 1 h at 4 °C. The PAS domains were purified by Ni^2+ affinity chromatography using HisTrap HP column (Cytiva) and eluted on a linear gradient to 500 mM imidazole. The protein was further purified on a Superdex 200 Increase 10/300 column (Cytiva) equilibrated with 150 mM KCl, 1 mM TCEP, 10% glycerol, and 30 mM HEPES, pH 7.5. The protein concentration was determined with Bradford Protein Assay Kit (Pierce).
All SPR binding experiments were performed on a CM5 chip (Cytiva) at 25 °C using a Biacore T200 Instrument (GE Healthcare). […]

SPR binding to the immobilized PAS domain: directly binds
SMILES: CN(C)CCCN1c2ccccc2CCc2ccccc21 [imipramine]
